Among the data in BindingDB's records for doi:10.1016/j.jmb.2007.03.021 (University of Marburg, 2007) are IC50 values, retold here.

The structures appear in SMILES notation. pIC50: −log10 of the molar value.

For the experiment, the target named is Aldo-keto reductase family 1 member B1 (Homo sapiens, UniProt P15121). The experiment can be described thus: Enzyme Inhibition Assay. As to conditions: pH 6.2; 30 °C. The protocol:
The activity of the test enzyme was determined spectrophotometrically by monitoring the change in absorbance at 340 nm, which is due to the oxidation of NADPH or the reduction of NAD+ catalyzed by ALR2. The determination of the IC50 values was performed by using linear regression analysis of the log dose response curve.
Consider `O=C(O)CN1C(=O)c2c(c(C(=O)O)cc3ccccc23)S1(=O)=O` [2-(carboxymethyl)-1-oxo-1,2-dihydronaphtho[1,2-d]isothiazole-4-carboxylic acid 3,3-dioxide], for which the pIC50 (as a rule, the negative decadic logarithm of the IC50, by convention in mol/L) was 6.85. `Nc1cccc2ccc3c(c12)C(=O)N(CC(=O)O)S3(=O)=O` [2-(13-amino-3,5,5-trioxo-5-thia-4-azatricyclo[7.4.0.0^{2,6}]trideca-1,6,8,10,12-pentaen-4-yl)acetic acid] gave a negative-log IC50 (pIC50) of 4.00. In the case of `O=C(O)CN1C(=O)c2c(ccc3c([N+](=O)[O-])cccc23)S1(=O)=O` [2-(10-nitro-3,5,5-trioxo-5-thia-4-azatricyclo[7.4.0.0^{2,6}]trideca-1,6,8,10,12-pentaen-4-yl)acetic acid], the pIC50 was 3.74. Against the preceding molecule, the pIC50 is 0.26 log units lower. As for `CN1C(=O)c2c(c(C(=O)O)cc3ccccc23)S1(=O)=O` [4-methyl-3,5,5-trioxo-5-thia-4-azatricyclo[7.4.0.0^{2,6}]trideca-1,6,8,10,12-pentaene-7-carboxylic acid], the negative-log IC50 (pIC50) was 4.06. Molecule `Nc1cccc2c3c(ccc12)S(=O)(=O)N(CC(=O)O)C3=O` [2-(10-amino-3,5,5-trioxo-5-thia-4-azatricyclo[7.4.0.0^{2,6}]trideca-1,6,8,10,12-pentaen-4-yl)acetic acid] gave a pIC50 of 4.00. This pIC50 and that of the molecule before are within 0.2 log units of each other. `O=C(O)COC(=O)c1cc2ccccc2c2c1S(=O)(=O)N(CC(=O)O)C2=O` [2-{[4-(carboxymethyl)-3,5,5-trioxo-5-thia-4-azatricyclo[7.4.0.0^{2,6}]trideca-1,6,8,10,12-pentaen-7-yl]carbonyloxy}acetic acid] gave a pIC50 of 6.26. Compared with the last molecule, the pIC50 is 2.26 log units higher. `O=C(O)CN1C(=O)c2c(ccc3cccc([N+](=O)[O-])c23)S1(=O)=O` [2-(13-nitro-3,5,5-trioxo-5-thia-4-azatricyclo[7.4.0.0^{2,6}]trideca-1,6,8,10,12-pentaen-4-yl)acetic acid] gave a pIC50 of 3.72. Against the preceding molecule, the pIC50 is 2.54 log units lower. Next, `O=C(O)CN1C(=O)c2c(ccc3ccccc23)S1(=O)=O` [2-(3,5,5-trioxo-5-thia-4-azatricyclo[7.4.0.0^{2,6}]trideca-1,6,8,10,12-pentaen-4-yl)acetic acid]: 5.00.
